# Laboratory results: patent US20220192955A1, “AZOXYSTROBIN EFFICACY IN SCALP HEALTH” (The Procter & Gamble Company, priority 2020, published 2022)
# Marks after values point to notes of the source that are not given here.
# Experiments:
# keratin 1, keratin 10 = assay: Scalp tape strip barrier integrity: keratins 1 and 10; type: in vivo, human
# Description: Subjects are enrolled in a double-blind, randomized study for all test groups and have Baseline and Week 3 measurements of scalp health taken for flaking, itch and scalp health endpoints. Subjects take home a test product(s) and are instructed on use of test products throughout the study. Test products are solubilized in a hydroalcoholic leave-on formulation. Azoxystrobin raw material is sourced from AK Scientific Inc. (Union City, Calif.) as >97% pure. Azoxystrobin scalp treatment is prepared from a slurry of azoxystrobin in ethanol that is formulated to 0.1% (w/v) in a base chassis of 50% ethanol, 0.35% Ultrez 21 (rheology modifier), 0.05% neutrol TE and water (q.s.). […] Biomarkers of scalp health, including biomarkers of inflammation, itch, oxidative stress and barrier integrity are assessed by non-invasive tape strip sampling of the scalp surface to determine therapeutic resolution. All biomarkers are analyzed from D-Squame® scalp tape samples that are collected from the scalp of subjects before and after scalp treatment with either azoxystrobin or vehicle (Baseline, and Week 3 respectively). These are extracted and analyzed according to published methods (International Journal of Dermatology 2011, 50, 102-113, incorporated by reference herein). […] Biochemical markers of skin/scalp barrier integrity are analyzed to evaluate improvements on barrier health. […]
# [1] = tested on: Malassezia furfur (CBS 7982); assay: In vitro evaluation of antifungal potency (MIC); type: cell-based
# Description: Malassezia furfur (CBS 7982) is grown for approximately 24 hours in a 250 ml vent cap polycarbonate Erlenmeyer flask containing approximately 100 ml of mDixon medium and 5 ml of a fully grown M. furfur culture prepared using the same conditions as described. The cells are diluted by mixing 2.5 ml of the 24 hour-old culture per 50 ml of mDixon medium. A Versette robot (ThermoFisher Scientific) is used to transfer 292.5 μl of the dilute cells into each well of a Beckman 267007 polypropylene round bottom deep well plate. All compounds are sourced from Sigma Aldrich (St. Louis, Mo.) and prepared as 10 mg/ml in DMSO. A semipermeable aeraseal membrane is applied to the plate which is then be covered with water-soaked cotton batting. The samples are be shaken at 31° C. on a Heidolph Titramax 100 shaker at 1500 rpm for approximately 72 hours. The plates are shaken at 1250 rpm on an Eppendorf MixMate shaker to disperse the cells before transferring 200 μl to a Corning 3596 polystyrene plate. The samples are shaken again at 950 rpm on a MixMate shaker before the absorbance at 600 nm is read using a Molecular Devices SpectraMax plate reader.
smiles,measurement,setting,value
CO/C=C(/C(=O)OC)c1ccccc1Oc1cc(Oc2ccccc2C#N)ncn1 [Azoxystrobin],"Keratins-1,10 % Change from Baseline","keratin 1, keratin 10; 0.1% leave-on daily, Week 3, scalp tape strips",+86.0* %
same,increase in keratins 1 and 10,"keratin 1, keratin 10; compared to a placebo control",86%
same,"MIC value, Malassezia furfur","[1]; M. furfur CBS 7982, mDixon medium, 31° C., approximately 72 hours, absorbance at 600 nm",0.39-0.49 ppm
same,times more potent than pyraclostrobin (MIC),[1]; Malassezia furfur MIC ratio,4 times
same,times more potent than zinc pyrithione (MIC),[1]; Malassezia furfur MIC ratio,8 times
